Tests used:
[1] = Pharmacokinetic study in sham and myocardial ischemia model rats after a single oral dose of QSKL (UHPLC-psMS/MS of plasma, non-compartmental analysis); conditions: for AUC(0-inf): AUC0–∞
Description: (§1) Twelve male Spargue-Dawley rats (200 ± 20 g) were supplied by Vital River Laboratory Animal Technology Co. Ltd. (Beijing, China). […] The rats were acclimated under a humidity (50%) controlled room at 22–25 °C with a 12 h light-dark cycle, and standard diet and water were provided ad libitum for one week.
(§2) Afterwards, all rats were randomly divided into two groups, namely sham and model groups. The myocardial ischemia model was simulated by left anterior descending (LAD) coronary artery ligation [12], whilst the rats belonging to the sham group received the similar surgery, however no actual ligation in LAD. All animals were fasted overnight with free access to water prior to oral dosing. Aliquots (250 μL) of blood were sampled at 0 (pre-dose), 0.08, 0.25, 0.5, 0.75, 1, 1.5, 2, 4, 6, 8, 12, and 24 h from venous around eye socket into heparinized tubes after a single oral dosing of 8.0 g/kg of QSKL and the collected blood samples were immediately subjected for 4000 rpm centrifugation for 10 min at 4 °C to harvest the plasma samples. Each 100 μL aliquot of plasma sample was transferred into another Eppendorf tube and stored at −80 °C till use.
(§3) When analysis, 300 μL of internal standards (200 ng/mL for either internal standard) fortified ACN, corresponding to three volumes of plasma, was spiked into each thawed plasma sample and mixed thoroughly. Then, the resulting samples were processed as those calibration samples.
(§4) Individual animal plasma concentrations versus time dataset were subjected to a non-compartmental pharmacokinetic analysis using WinNonlin software (ver. 6.4, Pharsight Corp., Sunnyvale, CA, USA). The pharmacokinetic parameters of each analyte including the maximum plasma concentration (Cmax), the time at which Cmax was achieved (Tmax), the terminal elimination half-life (t1/2), and the area under the plasma concentration versus time curve (AUC0→t along with AUC0→∞) were calculated. Moreover, Lz corresponding to the ratio of the dosage and AUC0→∞, as well as mean residence time (MRT) that was defined as the ratio of the area under the first moment curve from time 0 to infinity (AUMC0→∞/AUC0→∞) was also calculated. All results are expressed as mean ± SD. Comparisons regarding the pharmacokinetic parameters were carried out between sham and model groups using Student’s t-test, and p values less than 0.05 were considered to be significant.

in vivo = conditions: male, Sprague-Dawley, rat, po, 8 g/kg, oral administration of QSKL, plasma, mean ± SD, n = 6; for AUC(0-t): AUC0–t; for AUC(0-inf): AUC0–∞
Description: as §1, §2, §3, §4

[2] = QSKL-treated plasma samples, sham and model rats, single oral dose 8.0 g/kg
[3] = male, Sprague-Dawley, rat, plasma, po, 8 g/kg, AUC0–t, model group (MG, myocardial ischemia) rats, oral administration of QSKL, plasma, mean ± SD, n = 6
[4] = male, Sprague-Dawley, rat, plasma, po, 8 g/kg, AUC0–t, sham group (SG) rats, oral administration of QSKL, plasma, mean ± SD, n = 6
[5] = male, Sprague-Dawley, rat, plasma, po, 8 g/kg, model group (MG, myocardial ischemia) rats, oral administration of QSKL, plasma, mean ± SD, n = 6
[6] = male, Sprague-Dawley, rat, plasma, po, 8 g/kg, sham group (SG) rats, oral administration of QSKL, plasma, mean ± SD, n = 6
[7] = male, Sprague-Dawley, rat, plasma, po, 8 g/kg, Cmax, model group (MG, myocardial ischemia) rats, oral administration of QSKL, plasma, mean ± SD, n = 6
[8] = male, Sprague-Dawley, rat, plasma, po, 8 g/kg, Cmax, sham group (SG) rats, oral administration of QSKL, plasma, mean ± SD, n = 6
[9] = male, Sprague-Dawley, rat, plasma, po, 8 g/kg, t1/2, model group (MG, myocardial ischemia) rats, oral administration of QSKL, plasma, mean ± SD, n = 6
[10] = male, Sprague-Dawley, rat, plasma, po, 8 g/kg, t1/2, sham group (SG) rats, oral administration of QSKL, plasma, mean ± SD, n = 6
[11] = model group (MG, myocardial ischemia) rats
[12] = male, Sprague-Dawley, rat, plasma, po, 8 g/kg, AUC0→t, model (myocardial ischemia, LAD ligation) rats, single oral dose of 8.0 g/kg QSKL, mean ± SD, n = 6
[13] = male, Sprague-Dawley, rat, plasma, po, 8 g/kg, AUC0→t, sham rats, single oral dose of 8.0 g/kg QSKL, mean ± SD, n = 6
[14] = rats, after oral dosing QSKL 8.0 g/kg

SMILES | AUC(0-t) [1, 3] [ng·h/mL] | AUC(0-t) [1, 4] [ng·h/mL] | AUC(0-inf) [1, 5] [ng·h/mL] | AUC(0-inf) [1, 6] [ng·h/mL] | Cmax [1, 7] [ng/mL] | Cmax [1, 8] [ng/mL] | MRT [1, 5] [h] | MRT [1, 6] [h] | Tmax [1, 5] [h] | Tmax [1, 6] [h] | half-life [1, 9] [h] | half-life [1, 10] [h] | distribution in rat plasma (quantifiable or not) [1, 2] | AUC(0-t) [1, 12] [ng·h/mL] | AUC(0-t) [1, 13] [ng·h/mL] | shape of plasma concentration-time profile [1, 14] | further results
COC[C@@]12CC[C@H](OC)[C@]34C(C([C@H](OC)[C@H]13)[C@]1(OC(C)=O)[C@H]3[C@@H](OC(=O)c5ccccc5)[C@](O)(C[C@H]34)[C@@H](OC)[C@@H]1O)N(C)C2 [hypaconitine] |  |  |  |  |  |  |  |  |  |  |  |  | quantifiable in most samples |  |  |  | AUC(0-t) (in vivo; [11]): 0.567 ± 0.26 ng·h/mL; AUC(0-t) (in vivo; sham group (SG) rats): 0.824 ± 0.249 ng·h/mL; AUC(0-inf) (in vivo; [11]): 0.552 ± 0.148 ng·h/mL; AUC(0-inf) (in vivo; sham group (SG) rats): 0.967 ± 0.303 ng·h/mL; Cmax (in vivo; [11]): 0.156 ± 0.134 ng/mL; Cmax (in vivo; sham group (SG) rats): 0.101 ± 0.0328 ng/mL; MRT (in vivo; [11]): 11.9 ± 3.73 h; MRT (in vivo; sham group (SG) rats): 11.7 ± 2.83 h; Tmax (in vivo; [11]): 1.54 ± 0.71 h; Tmax (in vivo; sham group (SG) rats): 2.08 ± 1.6 h; half-life (in vivo; t1/2, model group (MG, myocardial ischemia) rats): 7.45 ± 1.18 h; half-life (in vivo; t1/2, sham group (SG) rats): 8.67 ± 1.72 h
CCN1C[C@]2(COC)[C@H](O)C[C@H](OC)[C@@]34[C@@H]5C[C@@]6(O)[C@H](OC(=O)c7ccccc7)[C@@H]5[C@@](OC(C)=O)([C@@H]([C@H](OC)[C@H]23)[C@@H]14)[C@@H](O)[C@@H]6OC [aconitine] |  |  |  |  |  |  |  |  |  |  |  |  | unquantifiable in most QSKL-treated samples |  |  |  | 
CC1(C)[C@@H](O)CC[C@]2(C)[C@H]3C(=O)C=C4[C@@H]5C[C@@](C)(C(=O)O)CC[C@]5(C)CC[C@@]4(C)[C@]3(C)CC[C@@H]12 [glycyrrhetic acid] | 5040 ± 1860 | 3200 ± 298 | 14500 ± 5750 |  |  | 230 ± 57.1 | 41.9 ± 21.5 |  | 13.3 ± 8.55 | 14 ± 4.9 | 26.3 ± 15.6 |  |  | 5040 ± 1860 | 3200 ± 298 | Multiple-peak profiles | Cmax ([1]; male, Sprague-Dawley, rat, plasma, po, 8 g/kg, Cmax, sham rats, single oral dose of 8.0 g/kg QSKL, mean ± SD, n = 6): 230 ± 57.1 ng/mL; Tmax ([1]; male, Sprague-Dawley, rat, plasma, po, 8 g/kg, rats, after oral dosing QSKL 8.0 g/kg): > 12 h; Cmax ([1]; model (myocardial ischemia, LAD ligation) rats, single oral dose of 8.0 g/kg QSKL, mean ± SD, n = 6): 376 ± 196 ng/mL; Cmax ([1]; model group (MG, myocardial ischemia) rats, oral administration of QSKL, plasma, mean ± SD, n = 6): 376 ± 196 ng/mL

Further lines, with some results ahead:

AUC(0-t) [1, 3] [ng·h/mL] | AUC(0-t) [1, 4] [ng·h/mL] | AUC(0-inf) [1, 5] [ng·h/mL] | AUC(0-inf) [1, 6] [ng·h/mL] | Cmax [1, 7] [ng/mL] | Cmax [1, 8] [ng/mL] | MRT [1, 5] [h] | MRT [1, 6] [h] | Tmax [1, 5] [h] | Tmax [1, 6] [h] | half-life [1, 9] [h] | half-life [1, 10] [h] | SMILES | distribution in rat plasma (quantifiable or not) [1, 2] | AUC(0-t) [1, 12] [ng·h/mL] | AUC(0-t) [1, 13] [ng·h/mL] | shape of plasma concentration-time profile [1, 14] | further results
1.2 ± 0.482 | 0.966 ± 0.351 | 1.32 ± 0.472 | 1.22 ± 0.609 | 0.47 ± 0.291 | 0.243 ± 0.127 | 5.47 ± 2.56 | 7 ± 2.97 | 0.51 ± 0.46 | 0.61 ± 0.53 | 3.81 ± 1.89 | 4.7 ± 2.32 | COc1ccc(-c2coc3cc(O)ccc3c2=O)cc1 [formononetin] | quantifiable in most samples |  |  |  | 
2.4 ± 2.04 |  | 2.2 ± 1.77 |  | 1.02 ± 0.692 |  | 18.7 ± 16.7 |  | 0.56 ± 0.38 |  | 16.1 ± 11.3 |  | C[C@]1(OC(=O)/C=C/c2ccccc2)C[C@@H](O)[C@]2(O)C=CO[C@@H](O[C@@H]3O[C@H](CO)[C@@H](O)[C@H](O)[C@H]3O)[C@@H]21 [harpagoside] |  |  |  |  | Cmax ([1]; male, Sprague-Dawley, rat, plasma, po, 8 g/kg, Cmax, model (myocardial ischemia, LAD ligation) rats, single oral dose of 8.0 g/kg QSKL, mean ± SD, n = 6): 1.02 ± 0.692 ng/mL; distribution in rat plasma (quantifiable or not) ([1]; plasma of the model group, single oral dose 8.0 g/kg QSKL): always quantifiable; distribution in rat plasma (quantifiable or not) ([1]; samples from the sham group, single oral dose 8.0 g/kg QSKL): lower than its LOQ
72.8 ± 27.8 | 37.9 ± 7.11 | 170 ± 69.1 | 130 ± 69.1 | 8.87 ± 5.97 | 3.34 ± 1.12 | 40.2 ± 21.7 | 63.7 ± 34.4 |  | 1.46 ± 1.35 | 27.8 ± 14.2 | 43.2 ± 25.4 | CC1(C)[C@@H](O[C@H]2O[C@H](C(=O)O)[C@@H](O)[C@H](O)[C@H]2O[C@@H]2O[C@H](C(=O)O)[C@@H](O)[C@H](O)[C@H]2O)CC[C@]2(C)[C@H]3C(=O)C=C4[C@@H]5C[C@@](C)(C(=O)O)CC[C@]5(C)CC[C@@]4(C)[C@]3(C)CC[C@@H]12 [glycyrrhizic acid] | quantifiable in most samples | 72.8 ± 27.8 | 37.9 ± 7.11 | Multiple-peak profiles | 

From publication PMC6150229, “Simultaneous Determination of Twenty-Five Compounds in Rat Plasma Using Ultra-High Performance Liquid Chromatography-Polarity Switching Tandem Mass Spectrometry and Its Application to a Pharmacokinetic Study” (Molecules : A Journal of Synthetic Chemistry and Natural …, 2017)
